Laboratory results taken from ChEMBL document CHEMBL1149774, “Synthesis of N-(5,7-diamino-3-phenyl-quinoxalin-2-yl)-3,4,5-substituted anilines and N-[4[(5,7-diamino-3-phenylquinoxalin-2-yl)amino]benzoyl]-l-glutamic acid diethyl ester: evaluation of in vitro anti-cancer and anti-folate activities” (Eur J Med Chem, 2008).

How the values were obtained:
Assay type in all cases: functional
[1] = test system: HOP-62; assay: Growth inhibition of human HOP62 cells after 48 hrs by SRB staining method; conditions: HOP-62, 48 h
[2] = test system: NCI-H226; assay: Growth inhibition of human NCI-H226 cells after 48 hrs by SRB staining method; conditions: NCI-H226, 48 h
[3] = test system: NCI-H23; assay: Growth inhibition of human NCI-H23 cells after 48 hrs by SRB staining method; conditions: NCI-H23, 48 h
[4] = test system: NCI-H322M; assay: Growth inhibition of human NCI-H322M cells after 48 hrs by SRB staining method
[5] = test system: NCI-H522; assay: Growth inhibition of human NCI-H522 cells after 48 hrs by SRB staining method; conditions: NCI-H522, 48 h
[6] = test system: HCT-116; assay: Growth inhibition of human HCT116 cells after 48 hrs by SRB staining method; conditions: HCT-116, 48 h
[7] = test system: KM12; assay: Growth inhibition of human KM12 cells after 48 hrs by SRB staining method; conditions: KM12, 48 h
[8] = test system: SNB-19; assay: Growth inhibition of human SNB19 cells after 48 hrs by SRB staining method; conditions: SNB-19, 48 h
[9] = test system: Malme-3M; assay: Growth inhibition of human MALME-3M cells after 48 hrs by SRB staining method
[10] = test system: M14; assay: Growth inhibition of human M14 cells after 48 hrs by SRB staining method; conditions: M14, 48 h
[11] = test system: SK-MEL-28; assay: Growth inhibition of human SK-MEL-28 cells after 48 hrs by SRB staining method; conditions: SK-MEL-28, 48 h
[12] = test system: SK-MEL-5; assay: Growth inhibition of human SK-MEL-5 cells after 48 hrs by SRB staining method; conditions: SK-MEL-5, 48 h
[13] = test system: UACC-62; assay: Growth inhibition of human UACC62 cells after 48 hrs by SRB staining method; conditions: UACC-62, 48 h
[14] = test system: OVCAR-3; assay: Growth inhibition of human OVCAR-3 cells after 48 hrs by SRB staining method; conditions: OVCAR-3, 48 h
[15] = test system: OVCAR-4; assay: Growth inhibition of human OVCAR4 cells after 48 hrs by SRB staining method; conditions: OVCAR-4, 48 h
[16] = test system: OVCAR-5; assay: Growth inhibition of human OVCAR5 cells after 48 hrs by SRB staining method; conditions: OVCAR-5, 48 h
[17] = test system: OVCAR-8; assay: Growth inhibition of human OVCAR8 cells after 48 hrs by SRB staining method; conditions: OVCAR-8, 48 h
[18] = test system: A498; assay: Growth inhibition of human A498 cells after 48 hrs by SRB staining method; conditions: A498, 48 h
[19] = test system: CAKI-1; assay: Growth inhibition of human CAKI1 cells after 48 hrs by SRB staining method; conditions: CAKI-1, 48 h
[20] = test system: RXF 393; assay: Growth inhibition of human RXF393 cells after 48 hrs by SRB staining method; conditions: RXF 393, 48 h
[21] = test system: SN12C; assay: Growth inhibition of human SN12C cells after 48 hrs by SRB staining method
[22] = test system: TK-10; assay: Growth inhibition of human TK10 cells after 48 hrs by SRB staining method; conditions: TK-10, 48 h
[23] = test system: UO-31; assay: Growth inhibition of human UO31 cells after 48 hrs by SRB staining method; conditions: UO-31, 48 h
[24] = test system: PC-3; assay: Growth inhibition of human PC3 cells after 48 hrs by SRB staining method; conditions: PC-3, 48 h
[25] = test system: MCF7; assay: Growth inhibition of human MCF7 cells after 48 hrs by SRB staining method; conditions: MCF7, 48 h
[26] = test system: NCI/ADR-RES; assay: Growth inhibition of human NCI/ADR-RES cells after 48 hrs by SRB staining method
[27] = test system: MDA-MB-231; assay: Growth inhibition of human MDA-MB-231 cells after 48 hrs by SRB staining method; conditions: MDA-MB-231, 48 h
[28] = test system: MDA-MB-435; assay: Growth inhibition of human MDA-MB-435 cells after 48 hrs by SRB staining method; conditions: MDA-MB-435, 48 h
[29] = test system: A549; assay: Growth inhibition of human A549 cells after 48 hrs by SRB staining method; conditions: A549, 48 h
[30] = test system: SF-268; assay: Growth inhibition of human SF268 cells after 48 hrs by SRB staining method; conditions: SF-268, 48 h
[31] = test system: RPMI-8226; assay: Growth inhibition of human RPMI8226 cells after 48 hrs by SRB staining method; conditions: RPMI-8226, 48 h
[32] = read-out: pLC50 (the source's name) (converted)

`Nc1cc(N)c2nc(-c3ccccc3)c(Nc3ccc(Cl)c(Cl)c3)nc2c1` showed a GI50 [1] of 17.4 µM, an LC50 [1] of 81.3 µM and a TGI ([1]; read-out: pTGI (converted)) of 38 µM. The GI50 [2] was 17.4 µM, the LC50 [2] was 81.3 µM and the TGI ([2]; read-out: pTGI (converted)) was 38 µM. For the same compound, the GI50 [3] was 19.1 µM, the LC50 [3] was over 100 µM and the TGI ([3]; read-out: pTGI (converted)) was 55 µM. For the same compound, the LC50 [4] was 63.1 µM, the GI50 [5] was 5.25 µM and the LC50 [5] was 69.2 µM. The TGI ([5]; read-out: pTGI (converted)) was 21.9 µM, the GI50 [6] was 10.7 µM and the LC50 [6] was over 100 µM. The TGI ([6]; read-out: pTGI (converted)) was 52.5 µM, the GI50 [7] was 5.89 µM and the LC50 [7] was 87.1 µM. For the same compound, the TGI ([7]; read-out: pTGI (converted)) was 24.5 µM, the GI50 [8] was 12.9 µM and the LC50 [8] was 70.8 µM. It also gave a TGI ([8]; read-out: pTGI (converted)) of 30.2 µM, a GI50 [9] of 10.2 µM and an LC50 [9] of 57.5 µM. The TGI ([9]; read-out: pTGI (converted)) was 24.5 µM, the GI50 [10] was 14.8 µM and the LC50 [10] was over 100 µM. The TGI ([10]; read-out: pTGI (converted)) was 60.3 µM, the GI50 [11] was 16.2 µM and the CC50 [11, 32] was over 100 µM. For the same compound, the TGI ([11]; read-out: pTGI (converted)) was 44.7 µM, the GI50 [12] was 11 µM and the LC50 [12] was 58.9 µM. The TGI ([12]; read-out: pTGI (converted)) was 25.7 µM, the GI50 [13] was 13.2 µM and the LC50 [13] was 67.6 µM. The TGI ([13]; read-out: pTGI (converted)) was 30.2 µM, the GI50 [14] was 2.95 µM and the LC50 [14] was 37.2 µM. For the same compound, the TGI ([14]; read-out: pTGI (converted)) was 10 µM, the GI50 [15] was 11.2 µM and the LC50 [15] was over 100 µM. The TGI ([15]; read-out: pTGI (converted)) was 47.9 µM, the GI50 [16] was 28.2 µM and the LC50 [16] was 85.1 µM. For the same compound, the TGI ([16]; read-out: pTGI (converted)) was 49 µM, the GI50 [17] was 5.13 µM and the CC50 [17, 32] was over 100 µM. It also gave a TGI ([17]; read-out: pTGI (converted)) of 79.4 µM, a GI50 [18] of 12 µM and a CC50 [18, 32] of 57.5 µM. The TGI ([18]; read-out: pTGI (converted)) was 26.3 µM, the GI50 [19] was 13.5 µM and the CC50 [19, 32] was 64.6 µM. The TGI ([19]; read-out: pTGI (converted)) was 29.5 µM, the GI50 [20] was 6.17 µM and the CC50 [20, 32] was over 100 µM. It also gave a TGI ([20]; read-out: pTGI (converted)) of 30.9 µM, a GI50 [21] of 12.6 µM and a CC50 [21, 32] of 79.4 µM. It also gave a TGI ([21]; read-out: pTGI (converted)) of 31.6 µM, a GI50 [22] of 13.8 µM and a CC50 [22, 32] of 66.1 µM. The TGI ([22]; read-out: pTGI (converted)) was 30.2 µM, the GI50 [23] was 11.2 µM and the CC50 [23, 32] was over 100 µM. The TGI ([23]; read-out: pTGI (converted)) was 36.3 µM, the GI50 [24] was 3.09 µM and the CC50 [24, 32] was 89.1 µM. It also gave a TGI ([24]; read-out: pTGI (converted)) of 15.1 µM, a GI50 [25] of 5.01 µM and a CC50 [25, 32] of 75.9 µM. For the same compound, the TGI ([25]; read-out: pTGI (converted)) was 20.9 µM, the GI50 [26] was 15.5 µM and the CC50 [26, 32] was over 100 µM. For the same compound, the TGI ([26]; read-out: pTGI (converted)) was 55 µM, the GI50 [27] was 5.75 µM and the CC50 [27, 32] was over 100 µM. It also gave a TGI ([27]; read-out: pTGI (converted)) of 27.5 µM, a GI50 [28] of 2.14 µM and a CC50 [28, 32] of 9.77 µM. For the same compound, the TGI ([28]; read-out: pTGI (converted)) was 45.7 µM, the GI50 [29] was 10.7 µM and the CC50 [29, 32] was over 100 µM. The TGI ([29]; read-out: pTGI (converted)) was 34.7 µM, the GI50 [30] was 12 µM and the CC50 [30, 32] was 67.6 µM. The TGI ([30]; read-out: pTGI (converted)) was 28.8 µM, the GI50 [31] was 2 µM and the CC50 [31, 32] was over 100 µM. The TGI ([31]; read-out: pTGI (converted)) was 4.9 µM.
